Test results as given in PubChem BioAssay AID1963829 (Molecular Pharmacology Branch, DTP, NCI, 2024).

tested on: 935938-334-R-J1-PDC complex spheroid viability; test: Anticancer human tumor 935938-334-R-J1-PDC patient-derived small intestine adenocarcinoma cell line growth inhibition [POLQ]; settings: curve of first compound; second compound 10 µM
Method in brief: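 Patient-derived tumour cells were co-cultured with HUVEC and mesenchymal stem cells as multicellular spheroids at 37 °C. They were treated with POLQ inhibitors (novobiocin, ART-558, RP6685) alone or combined with other agents. Top concentrations were at or near clinical Cmax (otherwise 10 microM; SN-38 at 1 microM), decreasing in half-log steps.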
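Further: spheroids exposed to drugs for seven days before viability read.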
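Wherever viability, T/C is given: 100% = DMSO vehicle control wells.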

Point of comparison: `COc1ccc([C@@H](O)c2cc(-c3ncnc4cc(N5CCOCC5)ccc34)c(F)cc2Cl)nn1` + Nc1ccc(C#CCN(C(=O)Cc2ncc(C(F)(F)F)cc2C(F)(F)F)c2ccc(F)cc2)nn1, IC50 2.04 µM. Against it:
- CCc1c2c(nc3ccc(O)cc13)-c1cc3c(c(=O)n1C2)COC(=O)[C@]3(O)CC + Nc1ccc(C#CCN(C(=O)Cc2ncc(C(F)(F)F)cc2C(F)(F)F)c2ccc(F)cc2)nn1 — 92-fold lower, 0.0221 µM
- C=CCn1c(=O)c2cnc(Nc3ccc(N4CCN(C)CC4)cc3)nc2n1-c1cccc(C(C)(C)O)n1 + COC1C(OC(N)=O)C(O)C(Oc2ccc3c(O)c(NC(=O)c4ccc(O)c(CC=C(C)C)c4)c(=O)oc3c2C)OC1(C)C — 5.2-fold lower, 0.392 µM
- O=C(Nc1ccc(O)c(NS(=O)(=O)c2ccc(F)cc2)c1)c1ccc(-c2ccccc2)cc1 + Nc1ccc(C#CCN(C(=O)Cc2ncc(C(F)(F)F)cc2C(F)(F)F)c2ccc(F)cc2)nn1 — 3.8-fold higher, 7.74 µM
- C=CC(=O)N1CCN(c2nc(=O)n(-c3c(C)ccnc3C(C)C)c3nc(-c4c(O)cccc4F)c(F)cc23)C(C)C1 (configuration not stated) + Nc1ccc(C#CCN(C(=O)Cc2ncc(C(F)(F)F)cc2C(F)(F)F)c2ccc(F)cc2)nn1 — higher, > 10 µM

same assay, conditions: second compound 0.0316 µM; first compound 0.000316 µM; stronger effect = lower value

Compound `Cn1ncnc1[C@H]1c2n[nH]c(=O)c3cc(F)cc(c23)N[C@@H]1c1ccc(F)cc1` + COC1C(OC(N)=O)C(O)C(Oc2ccc3c(O)c(NC(=O)c4ccc(O)c(CC=C(C)C)c4)c(=O)oc3c2C)OC1(C)C has a viability, T/C of 101%.

same assay, conditions: second compound 0.0316 µM; first compound 0.001 µM; stronger effect = lower value

`Cn1ncnc1[C@H]1c2n[nH]c(=O)c3cc(F)cc(c23)N[C@@H]1c1ccc(F)cc1` + COC1C(OC(N)=O)C(O)C(Oc2ccc3c(O)c(NC(=O)c4ccc(O)c(CC=C(C)C)c4)c(=O)oc3c2C)OC1(C)C gave a viability, T/C of 106%.

same assay, conditions: second compound 0.0316 µM; first compound 0.00316 µM; stronger effect = lower value

Point of comparison: `Cn1ncnc1[C@H]1c2n[nH]c(=O)c3cc(F)cc(c23)N[C@@H]1c1ccc(F)cc1` + COC1C(OC(N)=O)C(O)C(Oc2ccc3c(O)c(NC(=O)c4ccc(O)c(CC=C(C)C)c4)c(=O)oc3c2C)OC1(C)C, viability, T/C 85.8%. Against it:
- CCc1c2c(nc3ccc(O)cc13)-c1cc3c(c(=O)n1C2)COC(=O)[C@]3(O)CC + Nc1ccc(C#CCN(C(=O)Cc2ncc(C(F)(F)F)cc2C(F)(F)F)c2ccc(F)cc2)nn1 — lower, 83.8%
- C=CCn1c(=O)c2cnc(Nc3ccc(N4CCN(C)CC4)cc3)nc2n1-c1cccc(C(C)(C)O)n1 + COC1C(OC(N)=O)C(O)C(Oc2ccc3c(O)c(NC(=O)c4ccc(O)c(CC=C(C)C)c4)c(=O)oc3c2C)OC1(C)C — higher, 97.9%

same assay, conditions: second compound 0.0316 µM; first compound 0.01 µM; stronger effect = lower value

Point of comparison: `C=CCn1c(=O)c2cnc(Nc3ccc(N4CCN(C)CC4)cc3)nc2n1-c1cccc(C(C)(C)O)n1` + COC1C(OC(N)=O)C(O)C(Oc2ccc3c(O)c(NC(=O)c4ccc(O)c(CC=C(C)C)c4)c(=O)oc3c2C)OC1(C)C, viability, T/C 135%. Against it:
- Cn1ncnc1[C@H]1c2n[nH]c(=O)c3cc(F)cc(c23)N[C@@H]1c1ccc(F)cc1 + COC1C(OC(N)=O)C(O)C(Oc2ccc3c(O)c(NC(=O)c4ccc(O)c(CC=C(C)C)c4)c(=O)oc3c2C)OC1(C)C — lower, 83.9%
- CCc1c2c(nc3ccc(O)cc13)-c1cc3c(c(=O)n1C2)COC(=O)[C@]3(O)CC + Nc1ccc(C#CCN(C(=O)Cc2ncc(C(F)(F)F)cc2C(F)(F)F)c2ccc(F)cc2)nn1 — lower, 61.7%

same assay, conditions: second compound 0.0316 µM; first compound 0.0316 µM; stronger effect = lower value

Point of comparison: `C=CCn1c(=O)c2cnc(Nc3ccc(N4CCN(C)CC4)cc3)nc2n1-c1cccc(C(C)(C)O)n1` + COC1C(OC(N)=O)C(O)C(Oc2ccc3c(O)c(NC(=O)c4ccc(O)c(CC=C(C)C)c4)c(=O)oc3c2C)OC1(C)C, viability, T/C 82.4%. Against it:
- Cn1ncnc1[C@H]1c2n[nH]c(=O)c3cc(F)cc(c23)N[C@@H]1c1ccc(F)cc1 + COC1C(OC(N)=O)C(O)C(Oc2ccc3c(O)c(NC(=O)c4ccc(O)c(CC=C(C)C)c4)c(=O)oc3c2C)OC1(C)C — higher, 92.9%
- CCc1c2c(nc3ccc(O)cc13)-c1cc3c(c(=O)n1C2)COC(=O)[C@]3(O)CC + Nc1ccc(C#CCN(C(=O)Cc2ncc(C(F)(F)F)cc2C(F)(F)F)c2ccc(F)cc2)nn1 — lower, 44.2%
- COc1ccc([C@@H](O)c2cc(-c3ncnc4cc(N5CCOCC5)ccc34)c(F)cc2Cl)nn1 + Nc1ccc(C#CCN(C(=O)Cc2ncc(C(F)(F)F)cc2C(F)(F)F)c2ccc(F)cc2)nn1 — higher, 87.1%
- O=C(Nc1ccc(O)c(NS(=O)(=O)c2ccc(F)cc2)c1)c1ccc(-c2ccccc2)cc1 + Nc1ccc(C#CCN(C(=O)Cc2ncc(C(F)(F)F)cc2C(F)(F)F)c2ccc(F)cc2)nn1 — higher, 107%
- C=CC(=O)N1CCN(c2nc(=O)n(-c3c(C)ccnc3C(C)C)c3nc(-c4c(O)cccc4F)c(F)cc23)C(C)C1 (configuration not stated) + Nc1ccc(C#CCN(C(=O)Cc2ncc(C(F)(F)F)cc2C(F)(F)F)c2ccc(F)cc2)nn1 — higher, 99.1%

same assay, conditions: second compound 0.0316 µM; first compound 0.1 µM; stronger effect = lower value

Point of comparison: `O=C(Nc1ccc(O)c(NS(=O)(=O)c2ccc(F)cc2)c1)c1ccc(-c2ccccc2)cc1` + Nc1ccc(C#CCN(C(=O)Cc2ncc(C(F)(F)F)cc2C(F)(F)F)c2ccc(F)cc2)nn1, viability, T/C 120%. Against it:
- Cn1ncnc1[C@H]1c2n[nH]c(=O)c3cc(F)cc(c23)N[C@@H]1c1ccc(F)cc1 + COC1C(OC(N)=O)C(O)C(Oc2ccc3c(O)c(NC(=O)c4ccc(O)c(CC=C(C)C)c4)c(=O)oc3c2C)OC1(C)C — lower, 83.2%
- CCc1c2c(nc3ccc(O)cc13)-c1cc3c(c(=O)n1C2)COC(=O)[C@]3(O)CC + Nc1ccc(C#CCN(C(=O)Cc2ncc(C(F)(F)F)cc2C(F)(F)F)c2ccc(F)cc2)nn1 — lower, 28.6%
- COc1ccc([C@@H](O)c2cc(-c3ncnc4cc(N5CCOCC5)ccc34)c(F)cc2Cl)nn1 + Nc1ccc(C#CCN(C(=O)Cc2ncc(C(F)(F)F)cc2C(F)(F)F)c2ccc(F)cc2)nn1 — lower, 81.3%
- C=CCn1c(=O)c2cnc(Nc3ccc(N4CCN(C)CC4)cc3)nc2n1-c1cccc(C(C)(C)O)n1 + COC1C(OC(N)=O)C(O)C(Oc2ccc3c(O)c(NC(=O)c4ccc(O)c(CC=C(C)C)c4)c(=O)oc3c2C)OC1(C)C — higher, 135%
- C=CC(=O)N1CCN(c2nc(=O)n(-c3c(C)ccnc3C(C)C)c3nc(-c4c(O)cccc4F)c(F)cc23)C(C)C1 (configuration not stated) + Nc1ccc(C#CCN(C(=O)Cc2ncc(C(F)(F)F)cc2C(F)(F)F)c2ccc(F)cc2)nn1 — lower, 111%

same assay, conditions: second compound 0.0316 µM; first compound 0.316 µM; stronger effect = lower value

Point of comparison: `C=CCn1c(=O)c2cnc(Nc3ccc(N4CCN(C)CC4)cc3)nc2n1-c1cccc(C(C)(C)O)n1` + COC1C(OC(N)=O)C(O)C(Oc2ccc3c(O)c(NC(=O)c4ccc(O)c(CC=C(C)C)c4)c(=O)oc3c2C)OC1(C)C, viability, T/C 84.5%. Against it:
- CCc1c2c(nc3ccc(O)cc13)-c1cc3c(c(=O)n1C2)COC(=O)[C@]3(O)CC + Nc1ccc(C#CCN(C(=O)Cc2ncc(C(F)(F)F)cc2C(F)(F)F)c2ccc(F)cc2)nn1 — lower, 31.6%
- COc1ccc([C@@H](O)c2cc(-c3ncnc4cc(N5CCOCC5)ccc34)c(F)cc2Cl)nn1 + Nc1ccc(C#CCN(C(=O)Cc2ncc(C(F)(F)F)cc2C(F)(F)F)c2ccc(F)cc2)nn1 — higher, 98.4%
- O=C(Nc1ccc(O)c(NS(=O)(=O)c2ccc(F)cc2)c1)c1ccc(-c2ccccc2)cc1 + Nc1ccc(C#CCN(C(=O)Cc2ncc(C(F)(F)F)cc2C(F)(F)F)c2ccc(F)cc2)nn1 — higher, 108%
- C=CC(=O)N1CCN(c2nc(=O)n(-c3c(C)ccnc3C(C)C)c3nc(-c4c(O)cccc4F)c(F)cc23)C(C)C1 (configuration not stated) + Nc1ccc(C#CCN(C(=O)Cc2ncc(C(F)(F)F)cc2C(F)(F)F)c2ccc(F)cc2)nn1 — higher, 87.1%

same assay, conditions: second compound 0.0316 µM; first compound 1 µM; stronger effect = lower value

Point of comparison: `COc1ccc([C@@H](O)c2cc(-c3ncnc4cc(N5CCOCC5)ccc34)c(F)cc2Cl)nn1` + Nc1ccc(C#CCN(C(=O)Cc2ncc(C(F)(F)F)cc2C(F)(F)F)c2ccc(F)cc2)nn1, viability, T/C 102%. Against it:
- CCc1c2c(nc3ccc(O)cc13)-c1cc3c(c(=O)n1C2)COC(=O)[C@]3(O)CC + Nc1ccc(C#CCN(C(=O)Cc2ncc(C(F)(F)F)cc2C(F)(F)F)c2ccc(F)cc2)nn1 — lower, 29.2%
